Here are results for two molecules from US20040162339A1, “Heterocyclic biaryl compounds, pharmaceutical and cosmetic compositions containing them and uses thereof” (priority 1996, published 2004).

What is called melting point is the temperature, or range, at which the solid turns liquid. In the case of `CCCCCCC1(c2ccc3c(c2)C(C)(C)CCC3(C)C)COc2cc(C(=O)O)ccc21` (centres unmarked), the melting point amounted to 137 °C.
As for `CC1(C)CCC(C)(C)c2cc(C3(CC(=O)O)COc4cc(C(=O)O)ccc43)ccc21` (centres unmarked), the figure is 268 °C.
